Test results published in patent US12084436B2, “Heterocyclic compound” (Takeda Pharmaceutical Company Limited, priority 2019, dated 2024).

Target: T1, HDAC6 enzyme (Homo sapiens, UniProt Q9UBN7)
T1 construct: prepared by transducing full length HDAC6 gene into Sf-9 insect cells; GST; purchased SignalChem; host or cells: Sf-9 insect cells
T1 sequence (Q9UBN7 1-1215): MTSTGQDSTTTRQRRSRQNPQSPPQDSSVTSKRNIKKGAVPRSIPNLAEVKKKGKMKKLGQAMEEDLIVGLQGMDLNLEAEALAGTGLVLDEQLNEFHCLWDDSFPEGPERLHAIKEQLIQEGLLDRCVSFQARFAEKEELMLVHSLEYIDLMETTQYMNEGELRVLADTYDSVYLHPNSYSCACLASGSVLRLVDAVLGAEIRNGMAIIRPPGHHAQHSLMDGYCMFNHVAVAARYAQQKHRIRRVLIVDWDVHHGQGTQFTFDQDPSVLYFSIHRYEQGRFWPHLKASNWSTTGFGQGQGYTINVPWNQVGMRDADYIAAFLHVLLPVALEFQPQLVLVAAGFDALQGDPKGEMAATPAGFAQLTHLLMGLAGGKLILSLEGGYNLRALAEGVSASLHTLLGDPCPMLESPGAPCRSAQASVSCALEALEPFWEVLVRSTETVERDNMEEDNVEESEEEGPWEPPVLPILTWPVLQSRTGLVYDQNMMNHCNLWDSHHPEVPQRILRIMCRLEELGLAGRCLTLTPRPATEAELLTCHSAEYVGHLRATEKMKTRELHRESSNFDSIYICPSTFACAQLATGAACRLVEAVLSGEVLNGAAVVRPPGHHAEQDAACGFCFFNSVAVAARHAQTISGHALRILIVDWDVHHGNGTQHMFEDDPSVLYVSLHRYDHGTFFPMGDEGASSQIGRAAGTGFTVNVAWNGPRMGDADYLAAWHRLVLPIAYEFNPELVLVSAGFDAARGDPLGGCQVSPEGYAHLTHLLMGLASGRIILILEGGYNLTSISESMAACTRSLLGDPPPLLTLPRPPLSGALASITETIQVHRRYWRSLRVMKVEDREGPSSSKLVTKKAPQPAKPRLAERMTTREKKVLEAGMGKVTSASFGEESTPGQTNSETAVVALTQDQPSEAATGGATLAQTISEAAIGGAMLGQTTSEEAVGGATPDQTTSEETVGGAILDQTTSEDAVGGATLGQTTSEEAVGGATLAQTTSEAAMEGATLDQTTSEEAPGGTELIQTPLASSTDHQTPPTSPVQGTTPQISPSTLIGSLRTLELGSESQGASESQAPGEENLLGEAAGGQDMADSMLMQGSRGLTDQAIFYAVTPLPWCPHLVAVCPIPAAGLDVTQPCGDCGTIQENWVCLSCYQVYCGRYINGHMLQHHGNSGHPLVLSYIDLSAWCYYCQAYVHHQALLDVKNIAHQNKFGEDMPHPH
Experiment: HDAC6 enzyme inhibitory assay (HDAC-Glo I/II Assay kit, luminescence)
Assay type: biochemical
Conditions: 10 μM test compound, wells without enzyme = 100% inhibition; for inhibition at 10 µM: read-out: HDAC6 inhibitory rate (%) (10 μM)
In short: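 Full-length human HDAC6, GST-purified from Sf-9 cells, was preincubated with compound for 60 min at room temperature in Tris-HCl pH 7.5 buffer with glutathione and Tween-20. Substrate-developer was then added, and luminescence was read after 20 min at room temperature. Inhibition was expressed relative to no-enzyme wells, taken as 100% inhibition.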

Row | inhibition at 10 µM [%] | HDAC6 inhibitory rate (%) (10 μM) | Compound
1 | 98 | – | Cn1ccc(OCc2ccccc2)c(-c2cc(F)cc(-c3nnc(C(F)F)o3)c2)c1=O [Example 35a, 4-(benzyloxy)-3-{3-[5-(difluoromethyl)-1,3,4-oxadiazol-2-yl]-5-fluorophenyl}-1-methylpyridin-2(1H)-one]
2 | 86 | – | O=C(Cn1ccnc1-c1cc(F)cc(-c2nnc(C(F)F)o2)c1)N1CCCC1 [Example 33a, 2-(2-{3-[5-(difluoromethyl)-1,3,4-oxadiazol-2-yl]-5-fluorophenyl}-1H-imidazol-1-yl)-1-(pyrrolidin-1-yl)ethan-1-one]
3 | 99 | – | N#Cc1cccc(Cn2ccnc2-c2cc(-c3nnc(C(F)F)o3)ccn2)n1 [Example 94a, 6-[(2-{4-[5-(difluoromethyl)-1,3,4-oxadiazol-2-yl]pyridin-2-yl]-1H-imidazol-1-yl)methyl]pyridine-2-carbonitrile]
4 | 100 | – | O=C1NN(c2ccc(F)c(F)c2)Cc2ncc(-c3nnc(C(F)F)o3)cc21 [Example 34b, 3-[5-(difluoromethyl)-1,3,4-oxadiazol-2-yl]-7-(3,4-difluorophenyl)-7,8-dihydropyrido[2,3-d]pyridazin-5(6H)-one]
5 | 100 | – | O=C(CC(F)(F)F)N(Cc1ccc(F)cc1)N1Cc2ccc(-c3nnc(C(F)F)o3)cc2C1=O [Example 14c, N-{6-[5-(difluoromethyl)-1,3,4-oxadiazol-2-yl]-1-oxo-1,3-dihydro-2H-isoindol-2-yl}-3,3,3-trifluoro-N-[(4-fluorophenyl)methyl]propanamide]
6 | 99 | – | Fc1cc(-c2nnc(C(F)F)o2)cc(-c2nccn2Cc2cccc(C(F)(F)F)c2)c1 [Example 67a]
7 | – | 93 | CN1C(=O)c2cc(-c3nnc(C(F)F)o3)ccc2CC1c1ccc(F)cc1 (single isomer, unassigned; isomer 2) [Example 42b, 7-[5-(difluoromethyl)-1,3,4-oxadiazol-2-yl]-3-(4-fluorophenyl)-2-methyl-3,4-dihydroisoquinolin-1(2H)-one (optical Isomer 2)]
8 | 21 | – | O=C1OCC(Cc2ccccn2)N1c1cc(F)cc(-c2nnc(C(F)F)o2)c1 (stereo not drawn) [Example 41a, 3-{3-[5-(difluoromethyl)-1,3,4-oxadiazol-2-yl)-5-fluorophenyl}-4-[(pyridin-2-yl)methyl]-1,3-oxazolidin-2-one]
9 | 99 | – | Fc1cccc(Cn2c(Br)cnc2-c2cc(-c3nnc(C(F)F)o3)ccn2)c1 [Example 74a, 2-{5-bromo-1-[(3-fluorophenyl)methyl]-1H-imidazol-2-yl}-4-[5-(difluoromethyl)-1,3,4-oxadiazol-2-yl]pyridine]
10 | 100 | – | N#Cc1cccc(Cn2ccnc2-c2cc(-c3nnc(C(F)F)o3)ccn2)c1 [Example 72a, 3-[(2-{4-[5-(difluoromethyl)-1,3,4-oxadiazol-2-yl]pyridin-2-yl}-1H-imidazol-1-yl)methyl]benzonitrile]
11 | 101 | – | O=C1c2cc(-c3nnc(C(F)F)o3)ccc2CN(c2ccc(F)cc2)N1CC(F)F [Example 48b, 2-(2,2-difluoroethyl)-7-[5-(difluoromethyl)-1,3,4-oxadiazol-2-yl]-3-(4-fluorophenyl)-3,4-dihydrophthalazin-1(2H)-one]
12 | 99 | – | O=C1c2cc(-c3nnc(C(F)F)o3)ccc2CN1NCc1ccc(F)cc1 [Example 6c, 6-[5-(difluoromethyl)-1,3,4-oxadiazol-2-yl]-2-{[(4-fluorophenyl)methyl]amino}-2,3-dihydro-1H-isoindol-1-one]

Continued, compound first:

Row | Compound | inhibition at 10 µM [%] | HDAC6 inhibitory rate (%) (10 μM)
13 | CN1C(=O)c2cc(-c3nnc(C(F)F)o3)cnc2CC1(C)c1ccc(F)c(F)c1 (single isomer, unassigned; isomer 1) [Example 39b, 3-[5-(difluoromethyl)-1,3,4-oxadiazol-2-yl]-7-(3,4-difluorophenyl)-6,7-dimethyl-7,8-dihydro-1,6-naphthyridin-5(6H)-one (optical isomer 1)] | – | 76
14 | CN(Cc1ccc(F)c(F)c1)N1Cc2ccc(-c3nnc(C(F)F)o3)cc2C1=O [Example 40c, 6-[5-(difluoromethyl)-1,3,4-oxadiazol-2-yl]-2-{[(3,4-difluorophenyl)methyl](methyl)amino}-2,3-dihydro-1H-isoindol-1-one] | 101 | –
15 | Cc1nn(C)cc1Cn1ccnc1-c1cc(F)cc(-c2nnc(C(F)F)o2)c1 [Example 63a, 2-(difluoromethyl)-5-(3-{1-[(1,3-dimethyl-1H-pyrazol-4-yl)methyl]-1H-imidazol-2-yl}-5-fluorophenyl)-1,3,4-oxadiazole] | 97 | –
16 | O=C1c2cc(-c3nnc(C(F)F)o3)cnc2CN1Nc1c(F)c(F)c(F)c(F)c1F [Example 33c, 3-[5-(difluoromethyl)-1,3,4-oxadiazol-2-yl]-6-(pentafluoroanilino)-6,7-dihydro-5H-pyrrolo[3,4-b]pyridin-5-one] | 99 | –
17 | CN1C(=O)c2cc(-c3nnc(C(F)F)o3)ccc2OC1(C)c1ccccn1 (stereo not drawn) [Example 12b, 6-[5-(difluoromethyl)-1,3,4-oxadiazol-2-yl]-2,3-dimethyl-2-(pyridin-2-yl)-2,3-dihydro-4H-1,3-benzoxazin-4-one] | 98 | –
18 | Cc1ccc(COc2cccnc2-c2cc(F)cc(-c3nnc(C(F)F)o3)c2)cc1 [Example 9a] | 79 | –
19 | Cc1nc(Cn2ccnc2-c2cc(F)cc(-c3nnc(C(F)F)o3)c2)sc1C [Example 65a, 2-(difluoromethyl)-5-(3-{1-[(4,5-dimethyl-1,3-thiazol-2-yl)methyl]-1H-imidazol-2-yl}-5-fluorophenyl)-1,3,4-oxadiazole] | 100 | –
20 | Cc1ccccc1Cn1ccnc1-c1cc(-c2nnc(C(F)F)o2)ccn1 [Example 86a, 4-[5-(difluoromethyl)-1,3,4-oxadiazol-2-yl]-2-{1-[(2-methylphenyl)methyl]-1H-imidazol-2-yl}pyridine] | 100 | –
21 | Fc1ccc(Cn2ccnc2-c2cc(-c3nnc(C(F)F)o3)ccn2)nc1 [Example 76a, 4-[5-(difluoromethyl)-1,3,4-oxadiazol-2-yl]-2-{1-[(5-fluoropyridin-2-yl)methyl]-1H-imidazol-2-yl}pyridine] | 100 | –
22 | O=C1c2cc(-c3nnc(C(F)F)o3)ccc2CN1N(Cc1cnn(C2CC2)c1)Cc1cnn(C2CC2)c1 [Example 10c, 2-{bis[(1-cyclopropyl-1H-pyrazol-4-yl)methyl]amino}-6-[5-(difluoromethyl)-1,3,4-oxadiazol-2-yl]-2,3-dihydro-1H-isoindol-1-one] | 97 | –
23 | CN(CCOCc1ccccc1)N1Cc2ccc(-c3nnc(C(F)F)o3)cc2C1=O [Example 48c, 2-{[2-(benzyloxy)ethyl](methyl)amino}-6-[5-(difluoromethyl)-1,3,4-oxadiazol-2-yl]-2,3-dihydro-1H-isoindol-1-one] | 99 | –
24 | O=C(OC1CCOCC1)N(Cc1ccc(F)cc1)N1Cc2ccc(-c3nnc(C(F)F)o3)cc2C1=O [Example 23c, oxan-4-yl {6-[5-(difluoromethyl)-1,3,4-oxadiazol-2-yl]-1-oxo-1,3-dihydro-2H-isoindol-2-yl}[(4-fluorophenyl)methyl]carbamate] | 101 | –
25 | N#Cc1cc(Cn2ccnc2-c2cc(-c3nnc(C(F)F)o3)ccn2)ccc1F [Example 1a, 5-[(2-{4-[5-(difluoromethyl)-1,3,4-oxadiazol-2-yl]pyridin-2-yl}-1H-imidazol-1-yl)methyl]-2-fluorobenzonitrile] | 100 | –
26 | O=C1c2cc(-c3nnc(C(F)F)o3)ccc2CN1NCC1CCOCC1 [Example 17c, 6-[5-(difluoromethyl)-1,3,4-oxadiazol-2-yl]-2-{[(oxan-4-yl)methyl]amino}-2,3-dihydro-1H-isoindol-1-one] | 98 | –
27 | CN1C(=O)c2cc(-c3nnc(C(F)F)o3)cnc2C[C@]1(C)c1cccc(F)c1 [Example 53b, (7R)-3-[5-(difluoromethyl)-1,3,4-oxadiazol-2-yl]-7-(3-fluorophenyl)-6,7-dimethyl-7,8-dihydro-1,6-naphthyridin-5(6H)-one] | 98 | –
